Values of other authors as cited in patent US5990112A, “Inhibitors of metalloproteases pharmaceutical compositions comprising same and methods of their use” (Affymax Technologies N.V., priority 1996, dated 1999).

Assays:
[1] = target: human rheumatoid synovial collagenase
[2] = target: rabbit bone proteoglycanase; conditions: Delaisse et al. 1985

In the case of `CNC(=O)[C@H](Cc1ccc(OC)cc1)NC(=O)[C@H](CC(C)C)NC(CCNC(=O)OCc1ccccc1)C(=O)O` (stereo partly drawn) [N-[3-(benzyloxy-carbonyl)amino-1-carboxy-n-propyl]-L-leucyl-O-methyl-L-tyrosine, N-methylamide], the IC50 [1] is given as under 8000 nM and the IC50 [2] is given as 500 nM.
